According to the NIST ThermoML archive (doi:10.1021/je025657+):
Values joined by “and” are separate entries in the source; they are usually repeats but may differ in a detail not shown here. Equal values may be shown once. ± gives the expanded uncertainty stated by the source.

Conditions: for vapor or sublimation pressure: Closed cell (Static) method

COC(F)(F)F [trifluoromethoxymethane]
Conditions	mass density [kg/m3]
350 K, 2141.2 kPa, Liquid	873.54 ± 0.73
350 K, 2548.5 kPa, Liquid	883.49 ± 0.7
350 K, 3078 kPa, Liquid	894.77 ± 0.68
350 K, 3561.7 kPa, Liquid	903.94 ± 0.65
350 K, 4061.4 kPa, Liquid	912.5 ± 0.63
350 K, 4604.4 kPa, Liquid	920.96 ± 0.61
350 K, 5110.9 kPa, Liquid	928.26 ± 0.59
350 K, 5614.7 kPa, Liquid	935 ± 0.56
350 K, 6145.6 kPa, Liquid	941.66 ± 0.54
350 K, 6708.6 kPa, Liquid	948.27 ± 0.52
350 K, 7180.7 kPa, Liquid	953.51 ± 0.51
360 K, 2566.6 kPa, Liquid	806.04 ± 1
360 K, 2595.3 kPa, Liquid	807.47 ± 1
360 K, 2674 kPa, Liquid	811 ± 0.99
360 K, 3046.9 kPa, Liquid	825.94 ± 0.95
360 K, 3567.7 kPa, Liquid	842.69 ± 0.91
360 K, 4099.1 kPa, Liquid	856.85 ± 0.88
360 K, 4614.4 kPa, Liquid	868.64 ± 0.85
360 K, 5110 kPa, Liquid	878.67 ± 0.82
360 K, 5611.7 kPa, Liquid	887.84 ± 0.79
360 K, 6201.7 kPa, Liquid	897.63 ± 0.77
360 K, 6215.7 kPa, Liquid	897.87 ± 0.77
360 K, 6705.8 kPa, Liquid	905.3 ± 0.74
360 K, 7100.8 kPa, Liquid	910.94 ± 0.72
370 K, 3130.2 kPa, Liquid	712.6 ± 1.4
370 K, 3147.8 kPa, Liquid	715.08 ± 1.4
370 K, 3586 kPa, Liquid	754.94 ± 1.3
370 K, 4068.1 kPa, Liquid	781.44 ± 1.2
370 K, 4642.5 kPa, Liquid	804.25 ± 1.1
370 K, 5159.1 kPa, Liquid	820.53 ± 1.1
370 K, 5641.4 kPa, Liquid	833.56 ± 1.1
370 K, 6176.7 kPa, Liquid	846.09 ± 1
370 K, 6712.7 kPa, Liquid	857.24 ± 0.99
370 K, 7155.1 kPa, Liquid	865.58 ± 0.97
380 K, 345.8 kPa, Gas	11.4 ± 0.29
380 K, 411.6 kPa, Gas	13.64 ± 0.3
380 K, 637.2 kPa, Gas	21.72 ± 0.33
380 K, 1069 kPa, Gas	38.43 ± 0.39
380 K, 1190.9 kPa, Gas	43.52 ± 0.41
380 K, 1736.8 kPa, Gas	68.74 ± 0.51
380 K, 2282.2 kPa, Gas	99.68 ± 0.64
380 K, 2913 kPa, Gas	148.72 ± 0.85
380 K, 3383.7 kPa, Gas	207.93 ± 1.1
380 K, 3672.6 kPa, Gas	287.87 ± 1.5
380 K, 3791.1 kPa, Gas	430.78 ± 2.3
380 K, 3807.7 kPa, Liquid	489.63 ± 2.4
380 K, 4003.4 kPa, Liquid	629 ± 1.9
380 K, 4596.7 kPa, Liquid	707.34 ± 1.6
380 K, 5159.5 kPa, Liquid	743.66 ± 1.5
380 K, 5653.6 kPa, Liquid	766.09 ± 1.4
380 K, 6175.8 kPa, Liquid	785.18 ± 1.3
380 K, 6672.5 kPa, Liquid	800.32 ± 1.3
380 K, 7138.9 kPa, Liquid	812.7 ± 1.2

Liquid
Conditions	mass density [kg/m3]	vapor or sublimation pressure
350 K	871.95 ± 2.6	2074.9 ± 3.2 kPa and 2075 ± 3.2 kPa and 2071.7 ± 3.2 kPa
355 K	–	2304.3 ± 3.6 kPa
360 K	805.64 ± 3.5	2553.1 ± 4 kPa and 2553.8 ± 4 kPa and 2554.9 ± 4 kPa
365 K	–	2823.3 ± 4.4 kPa
370 K	711.78 ± 4.7	3116.4 ± 4.8 kPa and 3117.3 ± 4.8 kPa and 3117.1 ± 4.8 kPa
375 K	–	3435.7 ± 5.3 kPa

Gas, Burnett expansion method
Conditions	mass density [kg/m3]
360 K, 150.4 kPa	5.122 ± 0.1
360 K, 208.1 kPa	7.139 ± 0.1
360 K, 223.5 kPa	7.683 ± 0.1
360 K, 330.6 kPa	11.52 ± 0.1
360 K, 455 kPa	16.13 ± 0.1
360 K, 484.7 kPa	17.25 ± 0.1
360 K, 704.6 kPa	25.9 ± 0.11
360 K, 952.6 kPa	36.41 ± 0.11
360 K, 1007.9 kPa	38.88 ± 0.11
360 K, 1335.8 kPa	54.71 ± 0.11
360 K, 1406.7 kPa	58.43 ± 0.11
360 K, 1807.1 kPa	82.26 ± 0.11
360 K, 1888.4 kPa	87.85 ± 0.11
360 K, 2309 kPa	123.6 ± 0.1
360 K, 2385.4 kPa	132 ± 0.1
370 K, 154.7 kPa	5.117 ± 0.1
370 K, 215.6 kPa	7.182 ± 0.1
370 K, 230 kPa	7.677 ± 0.1
370 K, 318.3 kPa	10.73 ± 0.1
370 K, 340.6 kPa	11.52 ± 0.1
370 K, 500.1 kPa	17.24 ± 0.1
370 K, 686.1 kPa	24.23 ± 0.1
370 K, 728.8 kPa	25.88 ± 0.1
370 K, 1046.2 kPa	38.85 ± 0.11
370 K, 1393.4 kPa	54.67 ± 0.11
370 K, 1468.6 kPa	58.37 ± 0.11
370 K, 1901.8 kPa	82.19 ± 0.11
370 K, 1990.6 kPa	87.72 ± 0.11
370 K, 2469.3 kPa	123.6 ± 0.1
370 K, 2559 kPa	132 ± 0.1
370 K, 2970.3 kPa	185.3 ± 0.2
370 K, 3031.6 kPa	197.4 ± 0.2
380 K, 147.8 kPa	4.751 ± 0.1
380 K, 158.9 kPa	5.114 ± 0.1
380 K, 220.5 kPa	7.14 ± 0.1
380 K, 236.5 kPa	7.671 ± 0.1
380 K, 327.6 kPa	10.73 ± 0.1
380 K, 350.5 kPa	11.51 ± 0.1
380 K, 483.9 kPa	16.12 ± 0.1
380 K, 515.4 kPa	17.23 ± 0.1
380 K, 708.4 kPa	24.22 ± 0.1
380 K, 752.6 kPa	25.86 ± 0.1
380 K, 1023.5 kPa	36.37 ± 0.11
380 K, 1084 kPa	38.82 ± 0.11
380 K, 1450 kPa	54.63 ± 0.11
380 K, 1529.5 kPa	58.32 ± 0.11
380 K, 1994.4 kPa	82.12 ± 0.11
380 K, 2092.4 kPa	87.73 ± 0.11
380 K, 2624.1 kPa	123.5 ± 0.1
380 K, 2726.4 kPa	131.8 ± 0.1
380 K, 3233.6 kPa	185.9 ± 0.2
380 K, 3316.9 kPa	198.3 ± 0.2
380 K, 3647 kPa	276.7 ± 0.4
380 K, 3686.3 kPa	294.2 ± 0.7
380 K, 3776.4 kPa	381.1 ± 4.7
380 K, 3786.4 kPa	439.7 ± 1
